Key:
[1] = molecular target: T1, M1 muscarinic receptor (Homo sapiens, UniProt P11229); assay: Functional mobilization of intracellular calcium (FLIPR) in CHO cells expressing M1 muscarinic receptor; assay type: cell-based; details: for M1 Activity: CHO cells expressing M1, calcium mobilization; for Emax: CHO, 100% efficacy is the maximum response obtained with the Carbachol control
T1 construct: expressed in transfected cells; host or cells: CHO (M1-CHO recombinant cell line)
T1 sequence (P11229 1-460): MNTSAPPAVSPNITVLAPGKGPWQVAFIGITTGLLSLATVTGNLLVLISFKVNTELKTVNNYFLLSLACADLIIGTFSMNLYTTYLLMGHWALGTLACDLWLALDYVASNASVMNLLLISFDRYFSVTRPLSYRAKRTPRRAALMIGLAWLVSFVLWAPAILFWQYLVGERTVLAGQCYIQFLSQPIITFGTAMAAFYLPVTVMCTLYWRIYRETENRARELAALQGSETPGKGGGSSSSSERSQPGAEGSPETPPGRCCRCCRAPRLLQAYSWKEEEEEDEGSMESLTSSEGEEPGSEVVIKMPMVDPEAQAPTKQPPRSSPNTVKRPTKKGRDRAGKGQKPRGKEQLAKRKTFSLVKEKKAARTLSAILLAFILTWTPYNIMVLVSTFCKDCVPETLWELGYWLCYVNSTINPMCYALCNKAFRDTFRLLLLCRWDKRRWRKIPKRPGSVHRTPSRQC
Description: (§1) VI. Assays for Detecting and Measuring Inhibition Properties of Compounds Functional Mobilization of Intracellular Calcium to Determine Muscarinic Receptor Activity:
(§2) CHO cells expressing muscarinic receptors (M1 to M5) are grown as monolayers in tissue culture flasks at 37° C. in a humidified atmosphere containing 5% CO2 and passaged every 3-5 days. The growth media is Dulbecco's modified eagles medium (DMEM, Gibco Cat# 12430-054), containing 25 mM Hepes and supplemented with Fetal Bovine Serum (Hyclone, cat# SH30071.03), 0.1 mM of MEM non-essential amino acids (GIBCO, Cat# 11140-050), 1 mM MEM Sodium Pyruvate (GIBCO Cat# 11360-070) and 100 units/ml of Penicillin G and 100 μg/ml of Streptomycin (GIBCO Cat# 15140-122). The recombinant muscarinic receptor cell lines are grown under antibiotic pressure with media containing 25 μg/ml zeocin and 500 μg/ml G418 (M1-CHO), 4 μg/ml puromycin, 50 μg/ml zeocin and 2.5 μg/ml blasticidin (M2 and M4-CHO) or 50 μg/ml zeocin and 4 μg/ml puromycin (M3 and M5-CHO).
(§3) Cells are harvested at 80-90% confluence using Versene (GIBCO Cat# 15040-066), collected by centrifugation and seeded 18-24 hours prior to running the calcium assay at a density of 5,000-10,000 cells/well in […], clear-bottomed 384-well plates (BD Biocoat, poly-D-lysine, Cat#356663). The day of the experiment, the cells are washed with a plate washer (Bioteck Instruments, ELX 405) using bath buffer (140-mM NaCl, 4.5-mM KCl, 2-mM CaCl2, 1-mM MgCl2, 10-mM Hepes-Na, 10-mM Glucose, pH 7.4, with NaOH) containing 1 mM Probenecid. Next, the calcium dye Fluo-3 (25 μl/well of Fluo-3 μM at 4 μM, Molecular Probes F-1241, in Bath 1 buffer containing 1 mM Probenecid) is added to the 25 μl of Bath 1 remaining in each well after the plate wash and the dye is loaded at 37° C. in the tissue culture incubator for 60-90 min. The fluorescent dye is removed using the plate washer with Bath 1 containing 1 mM Probenecid, leaving 25 μl/well of this solution after the wash. Alternatively, cells can be loaded with the calcium indicator from Molecular Devices (Calcium 3 Assay Reagents, Cat # R7181) adding 5 μl of a 5× solution dye in Bath 1 containing 1 mM Probenecid (10 ml per dye flask cat# R7182 to generate a solution 20×) to 20 μl of the same buffer. After loading for 60 min, the experiment can be run without having to remove the dye.
(§4) Compounds are prepared at a 2× fold concentration in a 96-well plate (round bottom, Costar Corning cat# 3656), by reconstituting the pre-spotted compounds in bath 1 containing 1 mM probenecid. The final concentration DMSO is 0.5%, and the amount of DMSO is normalized across the assay plate. To determine an agonist action of the compounds on muscarinic receptors, the reconstituted compounds are added (25 μl compound/well) to the cell assay plate (containing 25 μl/well) using the multi-channel robotic system of the FLIPR 3 Instrument (Molecular Devices, Sunnyvale, Calif.). To determine a functional inhibitory-action of the compounds on muscarinic receptors, the reconstituted compounds are added (25 μl compound/well) to the assay plate and pre-incubated for 15 min prior to adding 25 μl of Carbachol at 3× the EC80 for each muscarinic subtype. Alternatively, the compounds can be co-applied simultaneously with the agonist. In both assay modes, the fluorescence is recorded for 60 sec (excitation wavelength is […] and emission wavelength 540 nm) using the FLIPR 3 instrument.
(§5) The potency, efficacy and selectivity of the muscarinic compounds were evaluated by screening the compound activity across the whole family (M1 to M5 cells). Compounds were also screened for activity on other proteins such as other GPCRs and ion channels to determine selectivity on M4 receptors.
(§6) Examples of activities and efficacies of the muscarinic compounds of formulae (I, Ia, and Ib) on modulating M1 and M4 receptors are shown below in Table 8. […]

[2] = molecular target: T2, M4 muscarinic receptor (Homo sapiens, UniProt P08173); assay: Functional mobilization of intracellular calcium (FLIPR) in CHO cells expressing M4 muscarinic receptor; assay type: cell-based; details: for M4 Activity: CHO cells expressing M4, calcium mobilization; for Emax: CHO, 100% efficacy is the maximum response obtained with the Carbachol control
T2 construct: expressed in transfected cells; host or cells: CHO (M4-CHO recombinant cell line)
T2 sequence (P08173 1-479): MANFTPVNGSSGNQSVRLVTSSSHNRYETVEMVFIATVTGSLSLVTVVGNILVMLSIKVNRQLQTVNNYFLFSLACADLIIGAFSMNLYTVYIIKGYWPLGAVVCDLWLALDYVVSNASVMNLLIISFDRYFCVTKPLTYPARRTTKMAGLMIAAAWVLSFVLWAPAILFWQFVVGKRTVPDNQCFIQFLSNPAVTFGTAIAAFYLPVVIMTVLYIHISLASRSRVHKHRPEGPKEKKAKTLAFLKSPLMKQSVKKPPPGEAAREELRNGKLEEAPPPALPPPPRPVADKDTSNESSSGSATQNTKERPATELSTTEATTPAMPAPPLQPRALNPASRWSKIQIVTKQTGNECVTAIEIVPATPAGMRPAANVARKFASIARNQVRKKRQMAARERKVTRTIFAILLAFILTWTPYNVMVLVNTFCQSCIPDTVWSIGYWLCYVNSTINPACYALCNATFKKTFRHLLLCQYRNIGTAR
Description: as §1, §2, §3, §4, §5, §6

Structure (SMILES)	M1 Activity [1]	Emax [1]	M4 Activity [2]	Emax [2]
CC(C)NC(=O)C1=CC2(CCN(CC3CC4C=CC3C4)CC2)c2ccccc21 (stereo not shown) [compound 66]	+ (activity was measured to be greater than 10.0 μM)	< 25%	+++ (activity was measured to be less than 2.0 μM)	25 to 100%
CCN(CC)C(=O)C1=CC2(CCN(CCC(C)(C)C)CC2)c2ccccc21 [compound 26]	+ (activity was measured to be greater than 10.0 μM)	< 25%	+ (activity was measured to be greater than 10.0 μM)	< 25%
CCOC(=O)N1CCC(N2CCC3(CC=C(C(=O)N4CCCC4)c4ccccc43)CC2)CC1 [compound 43]	+++ (activity was measured to be less than 2.0 μM)	25 to 100%	+++ (activity was measured to be less than 2.0 μM)	25 to 100%
CNC(=O)C1=CC2(CCN(CC3CCCCC3)CC2)c2ccccc21 [Compound No. 6]	+ (activity was measured to be greater than 10.0 μM)	25 to 100%	+++ (activity was measured to be less than 2.0 μM)	25 to 100%
CC(C)(C)CCN1CCC2(C=C(C(=O)NC3CCCC3)c3ccccc32)CC1 [compound 77]	+ (activity was measured to be greater than 10.0 μM)	25 to 100%	+ (activity was measured to be greater than 10.0 μM)	< 25%
O=C(C1=CCC2(CCN(C3C[C@@H]4CC[C@@H]3C4)CC2)c2ccccc21)N1CCCC1 (stereo partly shown) [compound 29]	+ (activity was measured to be greater than 10.0 μM)	< 25%	+ (activity was measured to be greater than 10.0 μM)	< 25%
CCC(CC)NC(=O)C1=CC2(CCN(CCC(C)(C)C)CC2)c2ccccc21 [compound 39]	+ (activity was measured to be greater than 10.0 μM)	< 25%	++ (activity was measured to be from 2.0 μM to 10.0 μM)	25 to 100%
CC(C)(C)CCN1CCC2(C=C(C(=O)O)c3ccccc32)CC1 [Compound No. 20, 1′-(3,3-dimethylbutyl)spiro[indene-1,4′-piperidine]-3-carboxylic acid]	+ (activity was measured to be greater than 10.0 μM)	< 25%	+++ (activity was measured to be less than 2.0 μM)	< 25%
CCC(CC)NC(=O)C1=CC2(CCN(C3CCN(C(=O)N4CCOCC4)CC3)CC2)c2ccccc21 [compound 18]	+ (activity was measured to be greater than 10.0 μM)	< 25%	+ (activity was measured to be greater than 10.0 μM)	< 25%
O=C(NC1CCC1)C1=CC2(CCN(CC3CC4C=CC3C4)CC2)c2ccccc21 (stereo not shown) [compound 47]	++ (activity was measured to be from 2.0 μM to 10.0 μM)	25 to 100%	+++ (activity was measured to be less than 2.0 μM)	25 to 100%
N#CC1=CCC2(CCN(C3C[C@@H]4CC[C@@H]3C4)CC2)c2ccccc21 (stereo partly shown) [compound 35]	+ (activity was measured to be greater than 10.0 μM)	< 25%	++ (activity was measured to be from 2.0 μM to 10.0 μM)	< 25%
CCC(CC)NC(=O)C1=CC2(CCN(C3CCCCC3)CC2)c2ccccc21 [compound 73]	+ (activity was measured to be greater than 10.0 μM)	< 25%	++ (activity was measured to be from 2.0 μM to 10.0 μM)	25 to 100%
CCCC(C)NC(=O)C1=CC2(CCN(CC3CC4C=CC3C4)CC2)c2ccccc21 (stereo not shown) [compound 50]	+ (activity was measured to be greater than 10.0 μM)	< 25%	+++ (activity was measured to be less than 2.0 μM)	25 to 100%
CN(C)C(=O)C1=CC2(CCN(CC3CCCCC3)CC2)c2ccccc21 [compound 59]	+ (activity was measured to be greater than 10.0 μM)	< 25%	+++ (activity was measured to be less than 2.0 μM)	25 to 100%
CN(C)C(=O)C1=CC2(CCN(CCC(C)(C)C)CC2)c2ccccc21 [compound 56]	+ (activity was measured to be greater than 10.0 μM)	< 25%	+++ (activity was measured to be less than 2.0 μM)	25 to 100%
CCOC(=O)C1=CC2(CCN(CCC(C)(C)C)CC2)c2ccccc21 [compound 62]	+ (activity was measured to be greater than 10.0 μM)	25 to 100%	+++ (activity was measured to be less than 2.0 μM)	25 to 100%
CCOC(=O)N1CCC(N2CCC3(C=C(C(=O)N(C)C)c4ccccc43)CC2)CC1 [compound 60]	+++ (activity was measured to be less than 2.0 μM)	25 to 100%	+++ (activity was measured to be less than 2.0 μM)	25 to 100%
CC(C)(C)CCN1CCC2(CC=C(C(=O)N3CCCC3)c3ccccc32)CC1 [compound 11]	++ (activity was measured to be from 2.0 μM to 10.0 μM)	25 to 100%	++ (activity was measured to be from 2.0 μM to 10.0 μM)	< 25%
CNC(=O)C1=CC2(CCN(CCCCSC)CC2)c2ccccc21 [compound 49]	+ (activity was measured to be greater than 10.0 μM)	< 25%	+ (activity was measured to be greater than 10.0 μM)	< 25%

Source: patent publication US7858790B2, “Modulators of muscarinic receptors” (Vertex Pharmaceuticals Incorporated, priority 2006, dated 2010)
